In patent US9624161B2 (priority 2009, dated 2017):

Assays:
[1] = test system: rats; test: Single and repeated oral dose toxicity in rats (up to 28 days); format: in vivo, rat
Description: (§1) Compound IV was well-tolerated by rats and dogs after single and repeated oral administration (up to 28 days).

[2] = test system: intact and orchiectomized (ORX) male Sprague-Dawley rats; test: Suppression of LH and testosterone in intact and ORX rats, 14-day subcutaneous dosing; format: in vivo, rat; settings: for Serum testosterone: LLOQ 0.08 ng/mL
Description: An in vivo dose-response study was conducted to evaluate the effect of Compound IV on LH suppression in intact and orchiectomized (ORX) male rats.
Male Sprague-Dawley rats weighing approximately 200 g were maintained on a 12-h light/dark cycle with food (2016 Teklad Global 16% Protein Rodent Diet, Harlan, Madison, Wis.) and water available ad libitum. The animal protocol was reviewed and approved by the Institutional Animal Care and Use Committee of the University of Tennessee.
The test article for this study was weighed and dissolved in 10% DMSO (Fisher) diluted with PEG 300 (Acros Organics, NJ) to prepare the appropriate dose formulations. For this study, sixty (60) male Sprague-Dawley rats were randomized by body weight, and assigned to one of the twelve treatment groups (n=5 animals/group). The animals were housed in groups of 2 to 3 animals per cage. Control groups (intact and orchidectomized (ORX)) were administered vehicle daily. […]
After a 14-day dosing regimen, the animals were sacrificed under anesthesia (ketamine/xylazine, 87:13 mg/kg) and body weights were recorded. In addition, ventral prostate, seminal vesicles, and levator ani muscle were removed, cleaned of extraneous tissue, and individually weighed. Organ weight were normalized to body weight and expressed as a percentage of intact control. Blood was collected from the abdominal aorta under isoflurane anesthesia and allowed to clot. Serum was separated by centrifugation and stored at −80° C. prior to determination of serum hormone levels. Serum luteinizing hormone (LH) and follicle stimulating hormone (FSH) concentrations were determined by the Rat Pituitary Luminex Assay (Millipore, Billerica, Mass.) according to manufacturer's directions. The lower limit of quantitation for this assay was 3.2 pg/mL for LH and 32 pg/mL for FSH. Testosterone was measured by a Testosterone EIA (Alpco Diagnostics, Salem, N.H.) with a LLOQ of 0.08 ng/mL. Serum hormone values below the lower limit of quantitation (BLOQ) were omitted from analysis of group means. Therefore, the reported value for LH and T in the groups with samples BLOQ is higher than the actual value. This method of analysis provided the most conservative estimate of LH and T suppression. Fisher's Least Significant Difference test was used to compare individual dose groups to the intact and ORX vehicle control groups. Significance was defined a priori as a P-value <0.05.

[3] = test system: healthy young male volunteers; test: Study 1: 56 day proof of concept study in healthy young male volunteers (600, 1000, 1500 mg); format: in vivo, human; settings: for BSAP change / FSH change / Free testosterone change / Osteocalcin change / SHBG change / Total testosterone change / serum PSA change: castrated subjects
Description: A 56 day, proof of concept study of Compound IV was conducted in healthy young male volunteers. (Table 22 and Table 23 below). […] The free testosterone levels were reduced to levels below the levels expected from surgical castration or those expected from chemical castration with LHRH agonists or antagonists. This is due to a dose dependent increase in sex hormone binding globulin (SHBG) that is observed with Compound IV.

[4] = test system: human peripheral blood lymphocytes; test: Chromosomal aberrations in human peripheral blood lymphocytes in vitro; format: cell-based; settings: concentrations up to 200 μM
Description: as §1

[5] = test system: rats; test: Gastrointestinal effects after oral administration in rats; format: in vivo, rat
[6] = test system: liver X receptor (LXR); test: Nuclear receptor cross-reactivity transcriptional activation assay; format: cell-based, human; settings: agonist and antagonist modes
Description: Compound IV was screened for cross-reactivity against rat isoforms of glucocorticoid receptor (GR), mineralocorticoids receptor (MR), progesterone receptor (PR), androgen receptor (AR) and human isoforms of farnesoid X receptor (FXR), liver X receptor (LXR), peroxisome proliferator-activated receptors (PPAR-α and PPAR-γ), and retinoid X receptor (RXR-α) in both agonist and antagonist modes in transcriptional activation assays.

[7] = test system: healthy older male volunteers; test: Study 4: proof of concept study in healthy older male volunteers (1000, 1500, 2000 mg tablets, 28 days); format: in vivo, human; settings: each dose arm (1000, 1500, 2000 mg)
[8] = 600 mg, sufficiently compliant subjects
[9] = 1000 mg, sufficiently compliant subjects
[10] = 1500 mg, sufficiently compliant subjects

O=C(c1ccc(O)c(F)c1)N(c1ccc(O)cc1)c1ccc(F)cc1 [Compound IV, 3-fluoro-N-(4-fluorophenyl)-4-hydroxy-N-(4-hydroxyphenyl)benzamide]
Tolerability after single and repeated oral administration [1]: well-tolerated | Serum testosterone ([2]; Intact rats, 10 mg/kg per day s.c., 14 days): BLOQ | Serum testosterone ([2]; Intact rats, 30 mg/kg per day s.c., 14 days): BLOQ | Serum testosterone ([2]; ORX rats, all dose groups (0.3-30 mg/kg/day)): BLOQ | Suppression of serum testosterone ([2]; intact male rats, 3, 10 and 300 mg/kg, after 24 h, 72 h and 168 h (FIG. 9)): Rapid and potent suppression | Doses with significant reduction of FSH levels ([2]; intact rats, 14 days s.c.): ≥ 10 mg/kg/day | Doses with significant reduction of testosterone levels ([2]; intact rats, 14 days s.c.): ≥ 3 mg/kg per day | % subjects castrated [3, 8]: 0% ^ | BSAP % change from baseline to final observation [3, 8]: −18.7 ± 18.8% | FSH % change from baseline to final observation [3, 8]: −48.4 ± 53.9% | Free testosterone % change from baseline to final observation [3, 8]: −32.9 ± 43.2% | Osteocalcin % change from baseline to final observation [3, 8]: −32.8 ± 11.1% | SHBG % change from baseline to final observation [3, 8]: +363 ± 139% | Total testosterone % change from baseline to final observation [3, 8]: +22.1 ± 51.9% | serum PSA % change from baseline to final observation [3, 8]: −43.8 ± 21.1% | BSAP change ([3]; 1000 mg): 6.0 ± 29% | FSH change ([3]; 1000 mg): −91 ± 5.2% | Free testosterone change ([3]; 1000 mg): −98.2 ± 0.146% | Osteocalcin change ([3]; 1000 mg): −20 ± 15% | SHBG change ([3]; 1000 mg): 471 ± 102% | Total testosterone change ([3]; 1000 mg): −94.7 ± 0.228% | serum PSA change ([3]; 1000 mg): −52 ± 28% | % subjects castrated [3, 9]: 75% ^ | BSAP % change from baseline to final observation [3, 9]: −5.97 ± 31.6% | FSH % change from baseline to final observation [3, 9]: −78.4 ± 29.4% | Free testosterone % change from baseline to final observation [3, 9]: −86.4 ± 26.4% | Osteocalcin % change from baseline to final observation [3, 9]: −21.4 ± 14.4% | SHBG % change from baseline to final observation [3, 9]: +446 ± 130% | Total testosterone % change from baseline to final observation [3, 9]: −63.0 ± 59.9% | serum PSA % change from baseline to final observation [3, 9]: −42.8 ± 30.2% | Subjects that reached castrate levels of total testosterone ([3]; 1500 mg dose group, by Day 28, sufficiently compliant subjects): 90% | BSAP change ([3]; 1500 mg): −19 ± 21% | FSH change ([3]; 1500 mg): −88 ± 4.8% | Free testosterone change ([3]; 1500 mg): −97.7 ± 0.155% | Osteocalcin change ([3]; 1500 mg): −23 ± 17% | SHBG change ([3]; 1500 mg): 524 ± 212% | Total testosterone change ([3]; 1500 mg): −92.8 ± 0.65% | serum PSA change ([3]; 1500 mg): −43 ± 24% | % subjects castrated [3, 10]: 92% ^ | BSAP % change from baseline to final observation [3, 10]: −21.1 ± 17.0% | FSH % change from baseline to final observation [3, 10]: −89.7 ± 5.07% | Free testosterone % change from baseline to final observation [3, 10]: −97.5 ± 1.64% | Osteocalcin % change from baseline to final observation [3, 10]: −18.2 ± 18.7% | SHBG % change from baseline to final observation [3, 10]: +591 ± 258% | Total testosterone % change from baseline to final observation [3, 10]: −90.6 ± 9.67% | serum PSA % change from baseline to final observation [3, 10]: −48.1 ± 17.0% | SHBG increase over baseline ([3]; each dose arm (600, 1000, 1500 mg), Study 1): 300-600% | Structural or numeric chromosomal aberrations [4]: did not induce | Gastrointestinal motility and gastric acidity ([5]; oral 30 mg/kg in rats): significant increase | Peristalsis ([5]; oral 30 to 300 mg/kg in rats): significant increase | Agonist or antagonist activity at LXR [6]: did not display any agonist or antagonist activity | SHBG increase over baseline [7]: 300-600%
